Molecular target: T1, human adenosine A2a receptor (Homo sapiens, UniProt P29274)
T1 construct: β1 and γ2 baculoviruses from PerkinElmer Biosignal; host or cells: Sf9 insect cells infected with recombinant baculoviruses; membranes
Assay: Agonist-induced [35S]-GTPγS binding assay on A2a receptor, Sf9 membranes
Assay type: biochemical
Conditions: Sf9 cells expressing adenosine A2a receptor, XLGolf, and β1γ2 dimer
Description: After infection for 48 hours, cells were harvested for membrane preparation. Cells were harvested by centrifugation at 500×g at 4° C. The cell pellets were washed twice with Dulbecco's phosphate-buffered saline (DPBS) at pH 7.4 and suspended in ice-cold 10 mM Tris-HCl with 5 mM EDTA (TE)(pH 7.4) containing a protease inhibitor cocktail (Roche Applied Science, Indianapolis, Ind.) and sonicated. Following centrifugation at 1000×g, membranes were collected from the supernatant by centrifugation at 20,000×g for 30 min at 4° C. The membrane fraction was stored at −80° C. in TE containing 5% glycerol.
Membranes from Sf9 cells expressing the ADORA2A, XLGolf, β1, and γ2 subunits were resuspended in the reaction buffer (20 mM HEPES, pH 7.4, 100 mM NaCl, 10 mM MgCl2, 1 mM EDTA, 1 mM DTT) including protease inhibitor. Agonist-induced [^35S]-GTPγS binding assay was performed for 90 min at room temperature in 96 well-microplates with a volume of 200 μl per well, and containing 5 μg of membranes, agonist at a concentration range of 10^−12 to 10^−4 M, 10 μM GDP, and 400 pM [^35S]-GTPγS. Non-specific binding was determined in the presence of 10 μM unlabeled GTPαS. Incubations were terminated by rapid filtration of the samples throught glass fiber filters (Whatman GF/C). […] Radioactivity was measured using a Packard Bioscience Top Count NXT Microplate Scintillation microplate reader. […]

T1 sequence (P29274 whole entry): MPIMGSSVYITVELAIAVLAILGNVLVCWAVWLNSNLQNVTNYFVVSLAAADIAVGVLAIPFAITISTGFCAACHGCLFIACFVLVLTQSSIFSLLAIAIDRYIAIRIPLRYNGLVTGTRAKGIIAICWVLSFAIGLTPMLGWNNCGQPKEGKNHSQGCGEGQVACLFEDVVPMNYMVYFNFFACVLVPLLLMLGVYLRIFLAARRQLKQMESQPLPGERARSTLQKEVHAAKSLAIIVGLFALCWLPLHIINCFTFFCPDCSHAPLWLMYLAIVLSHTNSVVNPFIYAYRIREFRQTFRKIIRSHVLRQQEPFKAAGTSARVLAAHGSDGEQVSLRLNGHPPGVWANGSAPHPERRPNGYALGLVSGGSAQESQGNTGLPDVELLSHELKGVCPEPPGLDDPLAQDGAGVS

SMILES: Nc1nc(Nc2ccccc2)nc2c1ncn2[C@@H]1O[C@H](CO)[C@@H](O)[C@H]1O [CV1808]
- potencies of ADA-resistant adenosine receptor ligands: comparable
